What is called MIC is the lowest concentration found to suppress growth. A high value points to a less susceptible organism.

In brackets after ≈: the same amount, converted by molar mass.

This assay has as its system Escherichia coli. Briefly: Antibacterial activity against Escherichia coli HS294 after 18 hrs by microtitre plate method. The format is functional.

As to `C[C@H]1CCCC[C@H]2C(=O)C=C[C@H](O)[C@@H]2CC(=O)O1`, the minimum inhibitory concentration (MIC) was 40 µg/mL (≈ 159 µM).

(Values after ChEMBL document CHEMBL1147255, “Isolation and structure elucidation of Sch 642305, a novel bacterial DNA primase inhibitor produced by Penicillium verrucosum” (J Nat Prod, 2003).)
